# Non-standard residues stand in square brackets, D forms with d. No end group written: not given here.
# Experiments:
# [1] = tested on: several mammalian cell types; details: energy-independent manner; cited from earlier work
# [2] = tested on: STZ and HFD/STZ diabetic rats; assay: Inner blood-retinal barrier function (Evans blue extravasation) in diabetic SD rats; assay type: in vivo, Sprague-Dawley rat; details: compared to rats on a HFD not administered peptide
# Procedure: FIGS. 10A and 10B are charts showing the integrity of the blood-retinal barrier of normal rats (NRC), diabetic rats, and diabetic rats treated with Phe-D-Arg-Phe-Lys-NH2 (SS-20) or D-Arg-2′,6′-Dmt-Lys-Phe-NH2(SS-31), as analyzed by Evans blue extravasation. (A) diabetes induced by STZ; (B) diabetes induced by HFD/STZ.
# (§1) A rat model of diabetes was established by combination of 6-week HFD and low dose of STZ (30 mg/kg) injection or a single high dose of STZ (65 mg/kg) in SD rats. See generally, K. Srinivasan, B. Viswanad, Lydia Asrat, C. L. Kaul and P. Ramarao, Combination of high-fat diet-fed and low-dose streptozotocin-treated rat: A model for type 2 diabetes and pharmacological screening, Pharmacological Research, 52(4): 313-320, 2005. Rats of the same batch fed with normal chow (NRC) were used as a control.
# The effect of the aromatic-cationic peptides on the inner blood-retinal barrier function in the SD rat model was investigated.
# [3] = tested on: HFD/STZ diabetic rats; assay: Lens opacity (cataract) in HFD/STZ rat model; assay type: in vivo, Sprague-Dawley rat; details: for Percentage of opacity / Percentage of severe opacity / Turbidity degree + (mildly opaque), number in group / Turbidity degree ++ (opaque), number in group / Turbidity degree +++ (moderately opaque), number in group / Turbidity degree ++++ (severely opaque), number in group / Turbidity degree − (transparent), number in group: HFD/STZ rat model
# Procedure: as §1
# [4] = tested on: STZ diabetic rats; assay: Lens opacity (cataract) in STZ rat model; assay type: in vivo, Sprague-Dawley rat; details: 10 mg (Table 11: 10 mg/kg s.c.)
# Procedure: as §1
substance,measurement,setting,value
"2′,6′-Dmt-D-Arg-Phe-Lys-NH2",penetration of the plasma membrane,[1],readily penetrates
F[dR]FK-NH2,inner blood-retinal barrier function,[2],improved
same,cataract formation in the lenses of diabetic rats,"[3]; HFD/STZ and STZ models (FIGS. 6 and 7, Tables 13 and 14)",prevention or reversal of cataract formation
same,Percentage of opacity,[3]; 3 mg (Table 9: 3 mg/kg s.c.),75.0%
same,Percentage of severe opacity,[3]; 3 mg (Table 9: 3 mg/kg s.c.),25.0%
same,"Turbidity degree + (mildly opaque), number in group",[3]; 3 mg (Table 9: 3 mg/kg s.c.),1
same,"Turbidity degree ++ (opaque), number in group",[3]; 3 mg (Table 9: 3 mg/kg s.c.),1
same,"Turbidity degree +++ (moderately opaque), number in group",[3]; 3 mg (Table 9: 3 mg/kg s.c.),0
same,"Turbidity degree ++++ (severely opaque), number in group",[3]; 3 mg (Table 9: 3 mg/kg s.c.),1
same,"Turbidity degree − (transparent), number in group",[3]; 3 mg (Table 9: 3 mg/kg s.c.),1
same,Percentage of opacity,[3]; 10 mg (Table 9: 10 mg/kg s.c.),75.0%
same,Percentage of severe opacity,[3]; 10 mg (Table 9: 10 mg/kg s.c.),0%
same,"Turbidity degree + (mildly opaque), number in group",[3]; 10 mg (Table 9: 10 mg/kg s.c.),2
same,"Turbidity degree ++ (opaque), number in group",[3]; 10 mg (Table 9: 10 mg/kg s.c.),1
same,"Turbidity degree +++ (moderately opaque), number in group",[3]; 10 mg (Table 9: 10 mg/kg s.c.),0
same,"Turbidity degree ++++ (severely opaque), number in group",[3]; 10 mg (Table 9: 10 mg/kg s.c.),0
same,"Turbidity degree − (transparent), number in group",[3]; 10 mg (Table 9: 10 mg/kg s.c.),1
same,"Opacity degree ++++, number in group",[4],1
same,"Opacity degree +++, number in group",[4],0
same,"Opacity degree ++, number in group",[4],2
same,"Opacity degree +, number in group",[4],0
same,"Opacity degree −, number in group",[4],2
same,Percentage of opacity,[4],60.0%
same,Percentage of severe opacity,[4],20.0%
